Series [1] can be described thus: MRC5 cytotoxicity assay. The settings on record: human, MRC5SV2 cells (human embryonic lung fibroblasts), geometric mean of at least two independent tests. The class given is cell-based. As to the method: (§1) Primary peritoneal mouse macrophages (PMM) were collected two days after peritoneal stimulation with a 2% potato starch suspension. MRC5SV2 cells (diploid human embryonic lung fibroblasts) were cultured in minimal essential medium (MEM) containing Earle’s salts, supplemented with L-glutamine, NaHCO3, and 5% inactivated fetal calf serum. All cultures and assays were conducted at 37 °C under an atmosphere of 5% CO2.
(§2) Assays were performed in sterile 96-well microtiter plates, each well containing 10 μL of the compound dilution and 190 μL of MRC5SV2 or PMM inoculum (3 × 10^4 cells/mL). Cell growth was compared to untreated controls (100% growth) and assay-media controls (0% growth). After three-day incubation, cell viability was assessed fluorometrically by adding resazurin (50 μL/well of a stock solution in phosphate buffer (50 μg/mL)), incubating for 4 h and measuring fluorescence (λex 550 nm, λem 590 nm). The results were expressed as a percentage reduction in cell growth compared to untreated control wells. […] Tamoxifen was included as the reference drug.

The test system of series [2] is L. infantum. As to the kind of experiment: Intramacrophage L. infantum assay. The series is classed as cell-based. The settings on record: Leishmania infantum, geometric mean of at least two independent tests. On the procedure: L. infantum (MHOM/MA/67/ITMAP263) and L. donovani (MHOM/ET/67/L82) were maintained in the golden (Syrian) hamster (Mesocricetus auratus). Ex vivo amastigotes were collected from the spleen of an infected donor hamster using two centrifugation purification steps: 230g for 10 min, keeping the supernatant layer, and 4100g for 30 min, keeping the pellet. The spleen parasite burden was assessed using the Stauber technique.[25] For in vitro assays, the inoculum was prepared in RPMI-1640 medium, supplemented with 200 mM L-glutamine, 16.5 mM NaHCO3, and 5% inactivated fetal calf serum. For the in vivo model, an infection inoculum containing 2 × 10^7 amastigotes/100 μL was prepared in phosphate-buffered saline (PBS).
The assay was performed in sterile 96-well microtiter plates, each well containing 10 μL of the compound dilution and 190 μL of the PMM/amastigote inoculum (3 × 10^4 cells/4.5 × 10^5 parasites per well). Parasite multiplication was compared to untreated infected controls (100% growth) and uninfected controls (0% growth). After five-day incubation, total parasite burdens were microscopically assessed after staining the cells with a 10% Giemsa solution. The results were expressed as a percentage reduction in parasite burden compared to untreated control wells. EC50 values were determined using an extended dose range (2-fold compound dilutions, 8-point concentration curve). Miltefosine was used as the reference drug.[26] For selected compounds, this assay format was also run using the L. donovani inoculum.

Series [3] in a line: PMM cytotoxicity assay. The series is classed as cell-based. The note with it: mouse, primary peritoneal mouse macrophages (PMM), geometric mean of at least two independent tests. On the procedure: as §1, §2
A short description of series [4]: Liver microsome stability, human. The class given is in vitro ADME. The settings on record: human liver microsomes. As to the method:
(§3) Tests were performed by WuXi AppTec, China. Test compounds (at 1 μM) or positive controls (testosterone, propafenone, and diclofenac) were incubated at 37 °C with liver microsomes from Balb/c mouse, golden (Syrian) hamster, Sprague-Dawley rat, Beagle dog, or human in the presence of a NADPH regenerating system and phosphate buffer (100 mM, pH 7.4) at 0.4 or 0.8 mg/mL microsomal protein. The samples were removed at time intervals from 0 to 60, 90, or 120 min and immediately mixed with cold methanol supplemented or not with acid (3% formic acid) and centrifuged prior to analysis by LC-MS/MS using tolbutamide or propranolol as internal standards.
In general terms: Microsomes from liver hold many membrane-bound enzymes, among them those of drug oxidation.

Series [5] is described as follows: Liver microsome stability, hamster. The series is classed as in vitro ADME. The note with it: golden (Syrian), hamster liver microsomes. On the procedure:
as §3

[6] abbreviates: Table 5, read-out: intramacrophage L. infantum amastigote EC50.
Setting [7] is: pH 7.4, Table 4, read-out: HLM Clint.
Where [8] appears, read: Table 4, read-out: intramacrophage L. infantum EC50.
Where [9] appears, read: pH 7.4, Table 4, read-out: HamLM Clint.
Setting [10] is: pH 7.4, Table 5, read-out: HLM Clint.
Where [11] appears, read: pH 7.4, Table 5, read-out: HamLM Clint.

Where two headings read alike, the source gives them in different places.

For the compound `Cc1c(C(=O)Nc2ccc3c(c2)B(O)OC3)nnn1-c1cccnc1` [Compound 27, N-(1-Hydroxy-1,3-dihydrobenzo[c][1,2]oxaborol-6-yl)-5-methyl-1-(pyridin-3-yl)-1H-1,2,3-triazole-4-carboxamide], the half-maximal cytotoxic concentration (CC50) at 3 days in series [1] (Table 5) and in series [3] (Table 5) was over 64 µM each time. In series [2] (setting [6]), the EC50 stood at 38 µM.
For the compound `O=C(Nc1ccc2c(c1)B(O)OC2)c1cn(C(F)(F)F)nc1C(F)(F)F` [Compound 4, N-(1-Hydroxy-1,3-dihydrobenzo[c][1,2]oxaborol-6-yl)-1,3-bis(trifluoromethyl)-1H-pyrazole-4-carboxamide], the cytotoxic concentration (CC50) at 3 days in series [1] (Table 4) and in series [3] (Table 4) was over 64 µM in each case. Also, the microsomal CLint at 1 μM in series [4] (setting [7]) is under 11.9 µL/min/mg. The 50% effective concentration (EC50) in series [2] (setting [8]) turned out to be 2.1 µM. Further, the microsomal CLint at 2 h, 1 µM in series [5] (setting [9]) is 1040 µL/min/mg.
With `COc1ccccc1-n1cc(C(=O)Nc2ccc3c(c2)B(O)OC3)c(C)n1` [Compound 14, N-(1-Hydroxy-1,3-dihydro-2,1-benzoxaborol-6-yl)-1-(2-methoxyphenyl)-3-methyl-1H-pyrazole-4-carboxamide], in series [1] (Table 4), the 50% cytotoxic concentration (CC50) at 72 h was determined as 15.7 µM. For the same compound, the EC50 in series [2] (setting [8]) worked out at 2.2 µM. Also, in series [3] (Table 4), the CC50 at 3 days is over 64 µM.
Regarding `Cc1nn(CCC(F)(F)F)cc1C(=O)Nc1ccc2c(c1)B(O)OC2` [Compound 7, N-(1-Hydroxy-1,3-dihydrobenzo[c][1,2]oxaborol-6-yl)-3-methyl-1-(3,3,3-trifluoropropyl)-1H-pyrazole-4-carboxamide], the CC50 at 3 days in series [1] (Table 4) and in series [3] (Table 4) was over 64 µM throughout. The EC50 in series [2] (setting [8]) was found to be 5.7 µM.
On to `Cc1nn(-c2ccccn2)cc1C(=O)Nc1ccc2c(c1)B(O)OC2` [Compound 11, N-(1-Hydroxy-1,3-dihydro-2,1-benzoxaborol-6-yl)-3-methyl-1-(pyridine-2-yl)-1H-pyrazole-4-carboxamide], for which the CC50 at 3 days in series [1] (Table 4) and in series [3] (Table 4) was over 64 µM throughout. For the same compound, the microsomal CLint at 1 μM in series [4] (setting [7]) was under 11.9 µL/min/mg. In series [2] (setting [8]), the EC50 turned out to be 5.7 µM.
As to `O=C(Nc1ccc2c(c1)B(O)OC2)c1cn(C2CCC2)nc1C(F)(F)F` [Compound 9, 1-Cyclobutyl-N-(1-hydroxy-1,3-dihydrobenzo[c][1,2]oxaborol-6-yl)-3-(trifluoromethyl)-1H-pyrazole-4-carboxamide], the figures for the CC50 at 72 h in series [1] (Table 4) and in series [3] (Table 4) were 26 µM and 32 µM, respectively. For the same compound, the microsomal CLint at 1 μM in series [4] (setting [7]) was under 11.9 µL/min/mg. The EC50 in series [2] (setting [8]) is 0.59 µM. The microsomal CLint at 2 h, 1 µM in series [5] (setting [9]) turned out to be 337 µL/min/mg.
For `Cc1nn(C2CCC2)cc1C(=O)Nc1ccc2c(c1)B(O)OC2` [Compound 8, Cyclobutyl-N-(1-hydroxy-1,3-dihydrobenzo[c][1,2]oxaborol-6-yl)-3-methyl-1H-pyrazole-4-carboxamide], the half-maximal cytotoxic concentration (CC50) at 3 days in series [1] (Table 4) and in series [3] (Table 4) was over 64 µM throughout. For the same compound, in series [4] (setting [7]), the microsomal CLint at 1 μM was under 11.9 µL/min/mg. Besides, the EC50 in series [2] (setting [8]) stood at 16 µM. For the same compound, in series [5] (setting [9]), the microsomal CLint at 2 h, 1 µM worked out at 57 µL/min/mg.
Turning to `Cc1c(-c2ccccn2)csc1C(=O)Nc1ccc2c(c1)B(O)OC2` [Compound 30, N-(1-Hydroxy-1,3-dihydrobenzo[c][1,2]oxaborol-6-yl)-3-methyl-4-(pyridin-2-yl)thiophene-2-carboxamide], the CC50 at 72 h in series [1] (Table 5) is 2.3 µM; in series [3] (Table 5) it was 32 µM. Further, the microsomal CLint at 1 μM in series [4] (setting [10]) was under 11.9 µL/min/mg. The 50% effective concentration (EC50) in series [2] (setting [6]) came out at 0.6 µM. Also, in series [5] (setting [11]), the microsomal CLint at 2 h, 1 µM worked out at 88 µL/min/mg.
Taken in the same sequence, the figures for `Cc1oc(C(=O)Nc2ccc3c(c2)B(O)OC3)cc1-c1ccccn1` [Compound 29, N-(1-Hydroxy-1,3-dihydrobenzo[c][1,2]oxaborol-6-yl)-5-methyl-4-(pyridin-2-yl)furan-2-carboxamide] were 45 µM, 29 µM, under 11.9 µL/min/mg, 1.7 µM and 82 µL/min/mg.
In series [1] (Table 5), `COc1cccc(-n2nnc(C(=O)Nc3ccc4c(c3)B(O)OC4)c2C)n1` [Compound 25, N-(1-Hydroxy-1,3-dihydrobenzo[c][1,2]oxaborol-6-yl)-1-(6-methoxypyridin-2-yl)-5-methyl-1H-1,2,3-triazole-4-carboxamide] showed a CC50 at 3 days of over 64 µM. Further, the microsomal CLint at 2 h, 1 µM in series [4] (setting [10]) was determined as 23 µL/min/mg; in series [5] (setting [11]), 40 µL/min/mg. In series [2] (setting [6]), the half-maximal effective concentration (EC50) came to 0.8 µM. Further, the CC50 at 72 h in series [3] (Table 5) was found to be 32 µM.
Take `Cn1nc(C(=O)Nc2ccc3c(c2)B(O)OC3)cc1-c1ccccn1` [Compound 21, N-(1-Hydroxy-1,3-dihydrobenzo[c][1,2]oxaborol-6-yl)-1-methyl-5-(pyridin-2-yl)-1H-pyrazole-3-carboxamide]: the CC50 at 72 h in series [1] (Table 4) is 54 µM. Moreover, the microsomal CLint at 2 h, 1 µM in series [4] (setting [7]) is 14 µL/min/mg; in series [5] (setting [9]), 106 µL/min/mg. Moreover, the EC50 in series [2] (setting [8]) is 1.8 µM. This compound also came in with a CC50 at 3 days in series [3] (Table 4) of over 64 µM.
Consider `Cc1cccc(-n2ncc(C(=O)Nc3ccc4c(c3)B(O)OC4)c2C)n1` [Compound 18, N-(1-Hydroxy-1,3-dihydrobenzo[c][1,2]oxaborol-6-yl)-5-methyl-1-(6-methylpyridin-2-yl)-1H-pyrazole-4-carboxamide], for which, in series [1] (Table 4), it took 41 µM to reach half-maximal cytotoxicity (CC50 at 72 h). Besides, in series [4] (setting [7]), the microsomal CLint at 1 μM is under 11.9 µL/min/mg. The half-maximal effective concentration (EC50) in series [2] (setting [8]) was found to be 1.6 µM. In series [3] (Table 4), the cytotoxic concentration (CC50) at 3 days was over 64 µM. The microsomal CLint at 2 h, 1 µM in series [5] (setting [9]) was 44 µL/min/mg.
Turning to `O=C(Nc1ccc2c(c1)B(O)OC2)c1cc(-c2ccccn2)n[nH]1` [Compound 19, N-(1-Hydroxy-1,3-dihydrobenzo[c][1,2]oxaborol-6-yl)-3-(pyridin-2-yl)-1H-pyrazole-5-carboxamide], the half-maximal cytotoxic concentration (CC50) at 72 h in series [1] (Table 4) turned out to be 4 µM; in series [3] (Table 4) it was 32 µM. The microsomal CLint at 1 μM in series [4] (setting [7]) is under 11.9 µL/min/mg. Also, the EC50 in series [2] (setting [8]) is 0.5 µM. Moreover, the microsomal CLint at 2 h, 1 µM in series [5] (setting [9]) was 253 µL/min/mg.
In the case of `Cc1c(C(=O)Nc2ccc3c(c2)B(O)OC3)nnn1-c1ccccc1` [Compound 24, N-(1-Hydroxy-1,3-dihydrobenzo[c][1,2]oxaborol-6-yl)-5-methyl-1-phenyl-1H-1,2,3-triazole-4-carboxamide], the cytotoxic concentration (CC50) at 3 days in series [1] (Table 5) and in series [3] (Table 5) was over 64 µM each time. Besides, in series [4] (setting [10]), the microsomal CLint at 1 μM is under 11.9 µL/min/mg. Moreover, in series [2] (setting [6]), the half-maximal effective concentration (EC50) was determined as 37 µM.
As for `Cc1c(C(=O)Nc2ccc3c(c2)B(O)OC3)cnn1CCC(F)(F)F` [Compound 15, N-(1-Hydroxy-1,3-dihydrobenzo[c][1,2]oxaborol-6-yl)-5-methyl-1-(3,3,3-trifluoropropyl)-1H-pyrazole-4-carboxamide], the CC50 at 3 days in series [1] (Table 4) and in series [3] (Table 4) was over 64 µM each time. In series [4] (setting [7]), the microsomal CLint at 1 μM was under 11.9 µL/min/mg. Further, the concentration giving a half-maximal response (EC50) in series [2] (setting [8]) was found to be 14 µM. Moreover, the microsomal CLint at 2 h, 1 µM in series [5] (setting [9]) is 48 µL/min/mg.
Compound `COc1cccc(-n2ncc(C(=O)Nc3ccc4c(c3)B(O)OC4)c2C)n1` [Compound 17, N-(1-Hydroxy-1,3-dihydrobenzo[c][1,2]oxaborol-6-yl)-1-(6-methoxypyridin-2-yl)-5-methyl-1H-pyrazole-4-carboxamide] displayed a cytotoxic concentration (CC50) at 72 h in series [1] (Table 4) of 40 µM. In series [4] (setting [7]), the microsomal CLint at 1 μM is under 11.9 µL/min/mg. Further, the EC50 in series [2] (setting [8]) amounted to 1.4 µM. Also, the 50% cytotoxic concentration (CC50) at 3 days in series [3] (Table 4) is over 64 µM. Moreover, the microsomal CLint at 2 h, 1 µM in series [5] (setting [9]) was found to be 40 µL/min/mg.
`Cc1cccc(-n2nnc(C(=O)Nc3ccc4c(c3)B(O)OC4)c2C)n1` [Compound 26, N-(1-Hydroxy-1,3-dihydrobenzo[c][1,2]oxaborol-6-yl)-5-methyl-1-(6-methylpyridin-2-yl)-1H-1,2,3-triazole-4-carboxamide]: the 50% cytotoxic concentration (CC50) at 3 days in series [1] (Table 5) and in series [3] (Table 5) was over 64 µM each time. The half-maximal effective concentration (EC50) in series [2] (setting [6]) was 6.4 µM.

As a reminder, the CC50 is the concentration that lowers cell viability or growth by half. By EC50 is commonly meant the concentration giving half of the maximal effect.

Source of the values: publication PMC8591608, “DNDI-6148: A Novel Benzoxaborole Preclinical Candidate for the Treatment of Visceral Leishmaniasis” (Journal of Medicinal Chemistry, 2021).
